What all share (type): in vivo
In experiment [1] the test system is Puccinia triticina; synonym: Puccinia recondita f. sp. tritici. Briefly: Fungicidal activity: wheat brown rust (PUCCRT), wheat seedlings. The settings on record: 100 ppm, wheat. In short, it runs like this:
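Wheat (Yuma) seedlings at first-leaf stage, inoculated with Puccinia triticina spores before or after treatment, held overnight in dark dew room at 22° C, 100% RH, then greenhouse at 24° C. Acetone solutions diluted with nine volumes water containing 110 ppm Triton X-100, sprayed to run-off. Percent disease control derived from severity (0–100%) relative to untreated plants.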

Experiment [2] relates to Blumeria graminis f.sp. tritici; synonym: Erysiphe graminis f.sp. tritici. In words: Fungicidal activity: wheat powdery mildew (ERYSGT). The settings on record: 24 h, 1 Day Protectant, read-out: Disease Control ERYSGT 1 DP. On the procedure:
Technical grades of materials were dissolved in acetone, which were then mixed with nine volumes of water containing 110 ppm Triton X-100. The fungicide solutions were applied onto wheat seedlings using an automated booth sprayer to run-off. All sprayed plants were allowed to air dry prior to further handling. Wheat plants (variety Yuma) were grown from seed in a greenhouse in 50% mineral soil/50% soil-less Metro mix until the first leaf was fully emerged, with 7-10 seedlings per pot. These plants were inoculated with an aqueous spore suspension of Septoria tritici either prior to or after fungicide treatments. After inoculation the plants were kept in 100% relative humidity (one day in a dark dew chamber followed by two to three days in a lighted dew chamber at 20° C.) to permit spores to germinate and infect the leaf. The plants were then transferred to a greenhouse set at 20° C. for disease to develop. When disease symptoms were fully expressed on the 1st leaves of untreated plants, infection levels were assessed on a scale of 0 to 100 percent disease severity. Percent disease control was calculated using the ratio of disease severity on treated plants relative to untreated plants. Evaluation of Fungicidal Activity: Wheat Powdery Mildew (Blumeria graminis f.sp. tritici; Synonym: Erysiphe graminis f.sp. tritici; Bayer Code […]) Wheat plants (variety Yuma) were grown from seed in a greenhouse in 50% mineral soil/50% soil-less Metro mix until the first leaf was fully emerged, with 7-10 seedlings per pot. These plants were inoculated by dusting with infected stock plants 24 hr after fungicide treatments. After inoculation the plants were kept in a greenhouse set at 20° C. for disease to develop. Fungicide formulation, application and disease assessment on the sprayed leaves followed the procedures as described in the Example A.

A further experiment deals with Alternaria solani. In words: Fungicidal activity: tomato early blight (ALTESO). The settings on record: 24 h, 1 Day Protectant, read-out: Disease Control ALTESO 1DP. The method, then:
Technical grades of materials were dissolved in acetone, which were then mixed with nine volumes of water containing 110 ppm Triton X-100. The fungicide solutions were applied onto wheat seedlings using an automated booth sprayer to run-off. All sprayed plants were allowed to air dry prior to further handling. Wheat plants (variety Yuma) were grown from seed in a greenhouse in 50% mineral soil/50% soil-less Metro mix until the first leaf was fully emerged, with 7-10 seedlings per pot. These plants were inoculated with an aqueous spore suspension of Septoria tritici either prior to or after fungicide treatments. After inoculation the plants were kept in 100% relative humidity (one day in a dark dew chamber followed by two to three days in a lighted dew chamber at 20° C.) to permit spores to germinate and infect the leaf. The plants were then transferred to a greenhouse set at 20° C. for disease to develop. When disease symptoms were fully expressed on the 1st leaves of untreated plants, infection levels were assessed on a scale of 0 to 100 percent disease severity. Percent disease control was calculated using the ratio of disease severity on treated plants relative to untreated plants. Evaluation of Fungicidal Activity: Tomato Early Blight (Alternaria solani; Bayer Code […]) Tomato plants (variety Outdoor girl) were propagated in soil-less Metro mix, with each pot having one plant, and used when 12 to 14 days old. Test plants were inoculated with an aqueous spore suspension of Alternaria solani 24 hr after fungicide treatments. After inoculation the plants were kept in 100% relative humidity (one day in a dark dew chamber followed by two to three days in a lighted dew chamber at 20° C.) to permit spores to germinate and infect the leaf. The plants were then transferred to a growth room at 22° C. for disease to develop. Fungicide formulation, application and disease assessment on the sprayed leaves followed the procedures as described in the Example A.

Setting [3] is: 24 h, 1 Day Protectant, read-out: Disease Control PUCCRT 1DP.
Setting [4] is: 72 h, 3 Day Curative, read-out: Disease Control PUCCRT 3DC.

Where two headings read alike, the source gives them in different places.

As for `COc1ccnc(C(=O)NC2COC[C@H](OCc3ccccc3)[C@@H](OCc3ccccc3)[C@H](C)OC2=O)c1OCOC(C)=O` (some centres unmarked) [Compound 12], the pest or weed control at 100 ppm in experiment [1] (setting [3]) was 80 to 100%; in experiment [1] (setting [4]), 80 to 100%; in experiment [2], 0 to 80%; in the experiment with Alternaria solani, 0 to 80%.
Consider `COc1ccnc(C(=O)N[C@H]2COC[C@H](OCC(C)C)[C@@H](Oc3ccccc3)[C@H](C)OC2=O)c1OCOC(C)=O` [Compound 85], for which the pest or weed control at 100 ppm in experiment [1] (setting [3]) was in the range of 80 to 100%; in experiment [1] (setting [4]), 80 to 100%; in experiment [2], 0 to 80%; in the experiment with Alternaria solani it was 0 to 80%.
With `CCCCO[C@H]1COC[C@H](NC(=O)c2nccc(OC)c2OCOC(C)=O)C(=O)O[C@@H](C)[C@@H]1OCC(F)F` [Compound 55], the pest or weed control at 100 ppm lay in the range of 80 to 100% in experiment [1] (setting [3]), 80 to 100% in experiment [1] (setting [4]) and 0 to 80% in experiment [2].
On to `COc1ccnc(C(=O)N[C@H]2COC[C@H](OC(=O)C(C)C)[C@@H](OC(=O)C(C)C)[C@H](C)OC2=O)c1OCOC(C)=O` [Compound 57], for which the pest or weed control at 100 ppm was 80 to 100% in experiment [1] (setting [3]), 80 to 100% in experiment [1] (setting [4]), 0 to 80% in experiment [2] and 0 to 80% with Alternaria solani.
For the compound `CCCO[C@H]1COC[C@H](NC(=O)c2nccc(OC)c2OCOC(C)=O)C(=O)O[C@@H](C)[C@@H]1Oc1ccccc1` [Compound 221], the pest or weed control at 100 ppm in experiment [1] (setting [3]) and in experiment [1] (setting [4]) was 80 to 100% in each case.
Regarding `COc1ccnc(C(=O)N[C@H]2COC[C@H](OCC(C)C)[C@@H](OC3CCCCC3)[C@H](C)OC2=O)c1OCOC(C)=O` [Compound 77], the pest or weed control at 100 ppm in experiment [1] (setting [3]) lay in the range of 80 to 100%; in experiment [1] (setting [4]) it was 80 to 100%; in experiment [2] it was 0 to 80%; in the experiment with Alternaria solani it was 0 to 80%.
In the case of `CCCCO[C@H]1COC[C@H](NC(=O)c2nccc(OC)c2OCOC(C)=O)C(=O)O[C@@H](C)[C@@H]1OCCOC` [Compound 54], the figures for the pest or weed control at 100 ppm in experiment [1] (setting [3]), in experiment [1] (setting [4]) and in experiment [2] were 80 to 100%, 80 to 100% and 0 to 80%, respectively.
`COc1ccnc(C(=O)N[C@H]2COC[C@H](OCC(C)C)[C@@H](OCC(C)C)[C@H](C)OC2=O)c1OCOC(C)=O` [Compound 3, (2-((3S,7S,8S,9S)-7,8-diisobutoxy-9-methyl-2-oxo-1,5-dioxonan-3-ylcarbamoyl)-4-methoxypyridin-3-yloxy)methyl]: the pest or weed control at 100 ppm lay in the range of 80 to 100% in experiment [1] (setting [3]), 80 to 100% in experiment [1] (setting [4]), 80 to 100% in experiment [2] and 0 to 80% in the experiment with Alternaria solani.
For `COc1ccnc(C(=O)N[C@H]2COC[C@H](Oc3ccccc3)[C@@H](Oc3ccccc3)[C@H](C)OC2=O)c1OCOC(C)=O` [Compound 84], the pest or weed control at 100 ppm in experiment [1] (setting [3]) is 80 to 100%; in experiment [1] (setting [4]), 80 to 100%; in experiment [2] it was 0 to 80%; in the experiment with Alternaria solani it was 0 to 80%.
With `COc1ccnc(C(=O)N[C@H]2COC[C@H](OCCCc3ccccc3)[C@@H](OCCCc3ccccc3)[C@H](C)OC2=O)c1OCOC(C)=O` [Compound 60], the pest or weed control at 100 ppm in experiment [1] (setting [3]) lay in the range of 80 to 100%; in experiment [1] (setting [4]), 80 to 100%; in experiment [2], 0 to 80%; in the experiment with Alternaria solani, 0 to 80%.
Regarding `COc1ccnc(C(=O)N[C@H]2COC[C@H](Oc3ccc(F)cc3)[C@@H](Oc3ccc(F)cc3)[C@H](C)OC2=O)c1OCOC(C)=O` [Compound 231], the pest or weed control at 100 ppm with Alternaria solani is 0 to 80%.
Turning to `CCC(C)(C)O[C@H]1COC[C@H](NC(=O)c2nccc(OC)c2OCOC(C)=O)C(=O)O[C@@H](C)[C@@H]1OCC(C)C` [Compound 78], the pest or weed control at 100 ppm in experiment [1] (setting [3]) fell in the range of 80 to 100%; in experiment [1] (setting [4]) it was 80 to 100%; in experiment [2], 80 to 100%; in the experiment on Alternaria solani, 0 to 80%.
For the compound `COc1ccnc(C(=O)N[C@H]2COC[C@H](OCC(C)C)[C@@H](OCC(C)C)[C@H](C)OC2=O)c1OCOC(=O)C(C)C` [Compound 2], the pest or weed control at 100 ppm in experiment [1] (setting [3]) and in experiment [1] (setting [4]) was 80 to 100% throughout.
`CCCO[C@H]1[C@H](C)OC(=O)[C@@H](NC(=O)c2nccc(OC)c2OCOC(C)=O)COC[C@@H]1Oc1ccccc1` [Compound 222]: the figures for the pest or weed control at 100 ppm (in experiment [1] (setting [3]); in experiment [1] (setting [4]); in the experiment on Alternaria solani) were 80 to 100%, 80 to 100% and 0 to 80%, respectively.
On to `COc1ccnc(C(=O)N[C@H]2COC[C@H](OCCCC(F)(F)F)[C@@H](OCCCC(F)(F)F)[C@H](C)OC2=O)c1OCOC(C)=O` [Compound 68], for which the pest or weed control at 100 ppm lay in the range of 80 to 100% in experiment [1] (setting [3]), 80 to 100% in experiment [1] (setting [4]), 0 to 80% in experiment [2] and 0 to 80% with Alternaria solani.
As for `COc1ccnc(C(=O)N[C@H]2COC[C@H](Oc3ccc(F)cc3)[C@@H](Oc3ccc(F)cc3)[C@H](C)OC2=O)c1OC(C)=O` [Compound 229, 2-(((3S,7S,8S,9S)-7,8-bis(4-fluorophenoxy)-9-methyl-2-oxo-1,5-dioxonan-3-yl)carbamoyl)-4-methoxypyridin-3-yl acetate], the pest or weed control at 100 ppm in the experiment with Alternaria solani was 0 to 80%.
Take `COc1ccnc(C(=O)N[C@H]2COC[C@H](OC)[C@@H](OC)[C@H](C)OC2=O)c1OCOC(C)=O` [Compound 65]: in experiment [1] (setting [4]), the pest or weed control at 100 ppm lay in the range of 0 to 80%.
With `COc1ccnc(C(=O)N[C@H]2COC[C@H](Oc3ccccc3)[C@@H](OCC(C)C)[C@H](C)OC2=O)c1OCOC(C)=O` [Compound 86], the pest or weed control at 100 ppm (in experiment [1] (setting [3]); in experiment [1] (setting [4]); in experiment [2]; with Alternaria solani) was 80 to 100% throughout.

The values above are taken from patent publication US9144239B2, “Macrocyclic picolinamides as fungicides” (DOW AGROSCIENCES LLC, priority 2012, dated 2015).
